Test results: patent publication EP4360627A1, “TREATMENT OF OSTEOARTHRITIS WITH COMT INHIBITORS” (Institut National de la Santé et de la Recherche Médicale …, priority 2022, dated 2024)

Experiments:
[1] = test system: chondrocytes articulaires humains; test: RT-PCR mRNA expression in IL-1β-stimulated human articular chondrocytes; assay type: cell-based; settings: IL-1β 1ng/mL, 48h, increasing doses of tolcapone, mRNA normalised to RPL13A
From the text: Les cellules ont été obtenus à partir de déchets opératoires selon la réglementation en vigueur (protocole approuvé par le comité de protection des personnes (CPP) Nord-Ouest III). Après la signature du consentement libre et éclairé par les patients, des têtes fémorales, des membranes synoviales et de la moelle osseuse sont récupérées à l'issue d'opération d'arthroplastie de la hanche chez des patients arthrosiques.
Les têtes fémorales sont disséquées et des copeaux de cartilages sont réalisés. Les chondrocytes sont libérés par digestion à la pronase de type XIV (2 mg/ml pendant 15 minutes; Sigma), suivie d'une digestion à la collagénase de type II (2 mg/ml pendant une nuit; Gibco). Les cellules sont ensuite ensemencées à 4×10^4 cellules/cm^2 dans du milieu Eagle modifié de Dulbecco (DMEM) supplémenté avec 10% de sérum de veau foetal (SVF) avec un cocktail d'antibiotiques. Elles sont ensuite incubées à 37°C dans une atmosphère humidifiée contenant 5% de CO2.
Pour les trois types cellulaires, les cellules ont été amplifiées dans une enceinte humide à 37°C sous 5% de CO2. Les milieux de culture sont changés 2 à 3 fois par semaine. Un test mycoplasme a été réalisé afin de vérifier qu'elles ne sont pas contaminées. […]

[2] = test system: modèle murin d'arthrose (MIA); test: Von Frey filament test (mechanical allodynia) in murine osteoarthritis model (MIA); assay type: in vivo, souris C57BL7; settings: intra-articular injections at 1, 2, 3 and 4 weeks after induction of osteoarthritis; arthritic paw relative to contralateral paw; figure 4B
From the text: (§1) Cette étude a été autorisée par le ministère de l'Enseignement Supérieur, de la Recherche et de l'Innovation après avis favorable du comité d'éthique locale, CENOMEXA (agrément n°B14118015). L'étude est réalisée au sein d'une animalerie agrée (UMS-CYCERON). Des souris C57BL7 mâles, âgées de 10 semaines ont été utilisés. Les souris étaient placées par cage de 8, en cycle inversé, nourriture et eau disponible ad libidum. L'état de santé de chaque souris était évalué quotidiennement.
(§2) Les injections intra-articulaires (MIA ou tolcapone) ont également été réalisées sous anesthésie générale. Après un repérage clinique du ligament patellaire, les injections sont faites par voie intra articulaire du genou après passage du ligament patellaire à l'aiguille 27 Gauge.
L'allodynie (douleur déclenchée pour un stimulus qui est normalement indolore) mécanique est évaluée par le test des filaments de Von Frey (BIOSEB In Vivo Research Instruments®). Ce test repose sur le principe selon lequel lorsque l'extrémité du filament (de longueur et de diamètre donnés) est appliquée perpendiculairement, la force exercée par le filament augmente jusqu'à ce que le filament fléchisse. Au-delà, la force exercée par le filament reste constante. Pour ce test, les souris sont placées dans une cage individuelle, sur une grille. Une période d'habituation de 30 minutes était requise avant le début du test. […]

[3] = test system: modèle murin d'arthrose (MIA); test: Knee histology (safranine-O / Fast Green) in murine osteoarthritis model (MIA); assay type: in vivo, souris C57BL7; settings: intra-articular injections at 1, 2, 3 and 4 weeks after induction; histology at 8 weeks; versus MIA+vehicule; figure 5
From the text: as §1, §2
Les articulations sont placées dans une solution de fixation (formaldehyde 37%, PBS) pendant 3 jours, puis décalcifié à l'aide d'Osteosoft pendant 48h. Ensuite, les articulations sont conservées à -80°C dans l'Optimal Cutting Temperature compound (OCT). Des coupes de 10 µm d'épaisseur ont été réalisées à -25°C à l'aide d'un Cryostat (CM 3050 S, Leica BIOSYSTEMS, France), puis montées sur des lames de microscopies SuperFrost®. Les lames sont ensuite colorées au Fast Green puis à la safranine-O. La safranine-O permet de mettre en évidence les composants du cartilage articulaire. […]

SMILES: Cc1ccc(C(=O)c2cc(O)c(O)c([N+](=O)[O-])c2)cc1 [tolcapone]
- expression de gènes impliqués dans le catabolisme (tel que MMP13) ([1]; figure 3A): réduit notamment l'expression de gènes impliqués dans le catabolisme (tel que MMP13)
- expression de gènes impliqués dans l'inflammation (tel que l'IL-6) ([1]; figure 3B): réduit notamment l'expression
- douleur induite (Von Frey) [2]: réduit nettement la douleur induite
- dommages articulaires (étude histologique) [3]: réduit les dommages articulaires
- dégradation du cartilage (étude histologique) [3]: très fortement limité la dégradation du cartilage
